Experimental data: PubChem BioAssay AID1259407 (Chemical Carcinogenesis Research Information System (CCRIS), 2018)
The source made the active and inactive calls. No rule for the calls is given here.

System: CCRIS mutagenicity, Ames/micronucleus/aberration tests
Assay: CCRIS mutagenicity studies
Source text: The CCRIS database contains chemical records with carcinogenicity, mutagenicity, tumor promotion, and tumor inhibition test results. It was developed by the National Cancer Institute (NCI). Data are derived from studies cited in primary journals, current awareness tools, NCI reports, and other sources. Test results have been reviewed by experts in carcinogenesis and mutagenesis.
CCRIS provides historical information from the years 1985 - 2011. It is no longer updated.
This is an archive assay for CCRIS mutagenicity studies.

[1] = Test System: AMES SALMONELLA TYPHIMURIUM, Strain/Indicator: TA98, Metabolic Activation: NONE, Method: STANDARD PLATE
[2] = Test System: AMES SALMONELLA TYPHIMURIUM, Strain/Indicator: TA100, Metabolic Activation: NONE, Method: STANDARD PLATE
[3] = Test System: AMES SALMONELLA TYPHIMURIUM, Strain/Indicator: TA98, Metabolic Activation: NONE, Method: PREINCUBATION
[4] = Test System: AMES SALMONELLA TYPHIMURIUM, Strain/Indicator: TA98, Metabolic Activation: RAT, LIVER, S-9, AROCLOR 1254, Method: PREINCUBATION

`Fc1cc2cccnc2c2ncccc12` was tested, and the mutagenic call (Test System: AMES SALMONELLA TYPHIMURIUM, Strain/Indicator: TA100, Metabolic Activation: RAT, LIVER, S-9, PHENOBARBITAL AND 5,6-BENZOFLAVONE, Method: PREINCUBATION) was “active; positive”.
With `CS(=O)CCCC/C(=N\OS(=O)(=O)O)S[C@@H]1O[C@H](CO)[C@@H](O)[C@H](O)[C@H]1O` (stereo not given in full) the mutagenic call (End Point: IN VITRO MICRONUCLEUS, Test System: HUMAN T-LYMPHOCYTES, Metabolic Activation: NONE) was “inactive; negative”.
For `Nc1ccc(/C=C/c2ccc([N+](=O)[O-])cc2)cc1`, the mutagenic call (Test System: AMES SALMONELLA TYPHIMURIUM, Strain/Indicator: TA98 (NR), Metabolic Activation: NONE, Method: STANDARD PLATE) was “inactive; negative”, the mutagenic call (Test System: AMES SALMONELLA TYPHIMURIUM, Strain/Indicator: TA98 (NR), Metabolic Activation: S-9, Method: STANDARD PLATE) was “active; positive” and the mutagenic call [1] was “active; positive”. The mutagenic call (Test System: AMES SALMONELLA TYPHIMURIUM, Strain/Indicator: TA98, Metabolic Activation: S-9, Method: STANDARD PLATE) was “active; positive”, the mutagenic call (Test System: AMES SALMONELLA TYPHIMURIUM, Strain/Indicator: TA100 (NR), Metabolic Activation: NONE, Method: STANDARD PLATE) was “inactive; negative” and the mutagenic call (Test System: AMES SALMONELLA TYPHIMURIUM, Strain/Indicator: TA100 (NR), Metabolic Activation: S-9, Method: STANDARD PLATE) was “active; positive”. For the same compound, the mutagenic call [2] was “inactive; negative” and the mutagenic call (Test System: AMES SALMONELLA TYPHIMURIUM, Strain/Indicator: TA100, Metabolic Activation: S-9, Method: STANDARD PLATE) was “active; positive”.
`O=c1cc(-c2ccc(O)cc2)oc2cc(O)c([C@@H]3O[C@H](CO)[C@@H](O)[C@H](O)[C@H]3O)c(O)c12` was tested, and the mutagenic call (Test System: Ames Salmonella typhimurium, Strain/Indicator: TA98, Metabolic Activation: None, Method: Standard plate) was “inactive; negative” and the mutagenic call (Test System: Ames Salmonella typhimurium, Strain/Indicator: TA98, Metabolic Activation: Rat, Liver, S-9, Aroclor 1254, Method: Standard plate) was “inactive; negative”.
With `OCC1CCCO1` (stereo not given) the mutagenic call [3] was “inactive; negative”, the mutagenic call [4] was “inactive; negative” and the mutagenic call (Test System: AMES SALMONELLA TYPHIMURIUM, Strain/Indicator: TA100, Metabolic Activation: NONE, Method: PREINCUBATION) was “inactive; negative”. For the same compound, the mutagenic call (Test System: AMES SALMONELLA TYPHIMURIUM, Strain/Indicator: TA100, Metabolic Activation: RAT, LIVER, S-9, AROCLOR 1254, Method: PREINCUBATION) was “inactive; negative”, the mutagenic call (Test System: AMES SALMONELLA TYPHIMURIUM, Strain/Indicator: TA102, Metabolic Activation: NONE, Method: PREINCUBATION) was “inactive; negative” and the mutagenic call (Test System: AMES SALMONELLA TYPHIMURIUM, Strain/Indicator: TA102, Metabolic Activation: RAT, LIVER, S-9, AROCLOR 1254, Method: PREINCUBATION) was “inactive; negative”.
`O=C(O)c1ccccc1Nc1cc(Cl)ccc1C(=O)O` was tested, and the mutagenic call [3] was “inactive; negative”, the mutagenic call [1] was “inactive; negative” and the mutagenic call [4] was “inactive; negative”. The mutagenic call (Test System: AMES SALMONELLA TYPHIMURIUM, Strain/Indicator: TA98, Metabolic Activation: RAT, LIVER, S-9, AROCLOR 1254, Method: STANDARD PLATE) was “inactive; negative”, the mutagenic call [2] was “inactive; negative” and the mutagenic call (Test System: AMES SALMONELLA TYPHIMURIUM, Strain/Indicator: TA100, Metabolic Activation: RAT, LIVER, S-9, AROCLOR 1254, Method: STANDARD PLATE) was “inactive; negative”. The mutagenic call (Test System: AMES SALMONELLA TYPHIMURIUM, Strain/Indicator: TA1535, Metabolic Activation: NONE, Method: STANDARD PLATE) was “inactive; negative”, the mutagenic call (Test System: AMES SALMONELLA TYPHIMURIUM, Strain/Indicator: TA1535, Metabolic Activation: RAT, LIVER, S-9, AROCLOR 1254, Method: STANDARD PLATE) was “inactive; negative” and the mutagenic call (Test System: AMES SALMONELLA TYPHIMURIUM, Strain/Indicator: TA1537, Metabolic Activation: NONE, Method: STANDARD PLATE) was “inactive; negative”. For the same compound, the mutagenic call (Test System: AMES SALMONELLA TYPHIMURIUM, Strain/Indicator: TA1537, Metabolic Activation: RAT, LIVER, S-9, AROCLOR 1254, Method: STANDARD PLATE) was “inactive; negative”, the mutagenic call (Test System: AMES SALMONELLA TYPHIMURIUM, Strain/Indicator: TA1538, Metabolic Activation: NONE, Method: STANDARD PLATE) was “inactive; negative” and the mutagenic call (Test System: AMES SALMONELLA TYPHIMURIUM, Strain/Indicator: TA1538, Metabolic Activation: RAT, LIVER, S-9, AROCLOR 1254, Method: STANDARD PLATE) was “inactive; negative”.
